Data on 15 compounds can be found in patent publication US20240076293A1, “Compositions and Methods for Inhibiting Fibrosis, Inflammation and Cancer” (Georgia Tech Research Corporation, priority 2020, published 2024).

Holding throughout (type): cell-based
For one data set, the system named is MCF-7. Nature of the data set: Anti-proliferation IC50, MCF-7. To be noted: Homo sapiens, MCF7.
A further data set relates to Hep-G2. The data set can be described thus: Anti-proliferation IC50, Hep-G2. To be noted: Homo sapiens, HepG2.
Another data set relates to VERO. Nature of the data set: Anti-proliferation IC50, VERO. Particulars: Chlorocebus sabaeus.
Data set [1] can be described thus: Anti-proliferation IC50, MRC-5. Particulars: human, MRC-5 cells; Table 1, compounds of formula I; NI = no inhibition up to 500 μM.
For the next data set, the system named is A549. The data set can be described thus: Anti-proliferation IC50, A549. To be noted: Homo sapiens.
In a further data set the test system is MDA-MB-231. Nature of the data set: Anti-proliferation IC50, MDA-MB-231. To be noted: Homo sapiens.
The test system of a further data set is MRC-5. Nature of the data set: Anti-proliferation IC50, MRC-5. Particulars: Homo sapiens, MRC5; Table 2, compounds of formula II.
Where [2] appears, read: Table 1, compounds of formula I, NI = no inhibition up to 500 μM, read-out: MCF-7 (IC50).
Where [3] appears, read: Table 1, compounds of formula I, NI = no inhibition up to 500 μM, read-out: Hep-G2 (IC50).
[4] abbreviates: Table 1, compounds of formula I, NI = no inhibition up to 500 μM, read-out: VERO (IC50).
Setting [5] is: Table 1, compounds of formula I, NI = no inhibition up to 500 μM, read-out: A549 (IC50).
Where [6] appears, read: Table 1, compounds of formula I, NI = no inhibition up to 500 μM, read-out: MDA-MB-231 (IC50).
[7] abbreviates: Table 2, compounds of formula II, read-out: Anti-proliferation IC50 Hep-G2.
[8] abbreviates: Table 2, compounds of formula II, read-out: Anti-proliferation IC50 VERO.
The mark [9] stands for this setting: Table 2, compounds of formula II, read-out: Anti-proliferation IC50 A549.
The mark [10] stands for this setting: Anti-proliferation IC50 for the new compounds, read-out: Hep-G2 (IC50 μM).
The mark [11] stands for this setting: Anti-proliferation IC50 for the new compounds, read-out: VERO (IC50 μM).
Where [12] appears, read: Anti-proliferation IC50 for the new compounds, read-out: MDA-MB-231 (IC50 μM).
The mark [13] stands for this setting: Anti-proliferation IC50 for the new compounds, read-out: MCF-7 (IC50 μM).

Read-outs that look alike come from different tables or passages of the source. Where only a bound is given, the exact number is not on record here.

With `CC[C@H]1OC(=O)[C@@H](C)[C@@H](O[C@@H]2C[C@](C)(OC)[C@H](O)[C@@H](C)O2)[C@@H](C)[C@@H](O[C@H]2O[C@@H](C)C[C@@H](N(C)C)[C@@H]2OC(=O)CCCC[C@H]2CCSS2)[C@](C)(OC)C[C@@H](C)C(=O)[C@H](C)[C@H](O)[C@]1(C)O`, the IC50 is above 500 µM with MCF-7 (setting [2]); above 500 µM in the data set with Hep-G2 (setting [3]); above 500 µM in the data set with VERO (setting [4]); 44.8 ± 7.1 µM in data set [1]; above 500 µM in the data set on A549 (setting [5]); 65 ± 0.9 µM with MDA-MB-231 (setting [6]).
`CC[C@H]1OC(=O)[C@@H](C)[C@@H](O)[C@@H](C)[C@@H](O[C@H]2O[C@@H](C)C[C@@H](N(C)C)[C@@H]2OC(=O)CCCC[C@H]2CCSS2)[C@](C)(OC)C[C@@H](C)C(=O)[C@H](C)[C@H](O)[C@]1(C)O`: the IC50 in the data set on MCF-7 (setting [2]) was 477.3 ± 3.4 µM; with Hep-G2 (setting [3]), 222 ± 5.3 µM; with VERO (setting [4]), above 500 µM; in data set [1], 262.6 ± 0.4 µM; with A549 (setting [5]), above 500 µM; with MDA-MB-231 (setting [6]), 414.4 ± 1.7 µM.
For the compound `CC[C@@H]1OC(=O)[C@@H](C)[C@H](O)[C@@H](C)[C@H](O[C@@H]2O[C@H](C)C[C@H](N(C)C)[C@H]2OC(=O)CCCC[C@H]2CCSS2)C(C)(O)C[C@H](C)CN(C)[C@@H](C)[C@H](O)[C@@]1(C)O` (some centres unmarked), the IC50 came to 225 ± 12.8 µM with Hep-G2 (setting [7]); 273 ± 26.9 µM in the data set on VERO (setting [8]); 143 ± 17.1 µM in the data set on MRC-5; 282 ± 14.3 µM in the data set with A549 (setting [9]); 400 ± 32.4 µM in the data set with MDA-MB-231 (Table 2, compounds of formula II, read-out: Anti-proliferation IC50 MDA-MB-231).
Consider `CC[C@H]1OC(=O)[C@H](C)[C@@H](O[C@H]2C[C@@](C)(OC)[C@@H](O)[C@H](C)O2)[C@H](C)[C@@H](O[C@@H]2O[C@H](C)C[C@H](N(C)C)C2OC(=O)CCCCC(CCSCc2ccccc2)SCc2ccccc2)[C@](C)(O)C[C@@H](C)CN(C)[C@H](C)[C@@H](O)[C@]1(C)O` (some centres unmarked) [AO-03-032], for which the IC50 turned out to be 4.2 µM in the data set on Hep-G2 (setting [10]); 10.4 µM with VERO (setting [11]); 7.6 µM in the data set on A549 (Anti-proliferation IC50 for the new compounds, read-out: A549 (IC50 μM)); 6.4 µM in the data set with MDA-MB-231 (setting [12]).
`CC[C@H]1OC(=O)[C@H](C)[C@@H](O[C@H]2C[C@@](C)(OC)[C@@H](O)[C@H](C)O2)[C@H](C)[C@@H](O[C@@H]2O[C@H](C)C[C@H](N(C)C(=O)CCCCC(CCSCc3ccccc3)SCc3ccccc3)[C@H]2O)[C@](C)(O)C[C@@H](C)CN(C)[C@H](C)[C@@H](O)[C@]1(C)O` (some centres unmarked) [AZM-613]: the IC50 in the data set on MCF-7 (setting [13]) was found to be 2.8 µM; with Hep-G2 (setting [10]), 2.9 µM; in the data set with VERO (setting [11]) it was 6.5 µM; with MDA-MB-231 (setting [12]) it was 2.1 µM.
As to `O=C(O)CCCCC(CCSCc1ccccc1)SCc1ccccc1` (centres unmarked) [CIP-613, reference compound], the IC50 in the data set on MCF-7 (setting [13]) came to 206 µM; in the data set on Hep-G2 (setting [10]) it was 232 µM; with VERO (setting [11]) it was 224 µM; with MDA-MB-231 (setting [12]), 236 µM.
Consider `CC[C@H]1OC(=O)[C@H](C)[C@@H](O[C@H]2C[C@@](C)(OC)[C@@H](O)[C@H](C)O2)[C@H](C)[C@@H](O[C@@H]2O[C@H](C)C[C@H](N(C)Cc3ccc(-c4cn(CCc5ccc(-n6cc(C)ccc6=O)cc5)nn4)cc3)[C@H]2O)[C@](C)(O)C[C@@H](C)CN(C)[C@H](C)[C@@H](O)[C@]1(C)O` [Compound 13c], for which the IC50 turned out to be 21.8 ± 0.4 µM with Hep-G2 (setting [7]), 22.6 ± 4.9 µM in the data set on VERO (setting [8]), 13.3 ± 0.9 µM in the data set on MRC-5 and 15.8 ± 3 µM in the data set on A549 (setting [9]).
With `CC[C@H]1OC(=O)[C@H](C)[C@@H](O[C@H]2C[C@@](C)(OC)[C@@H](O)[C@H](C)O2)[C@H](C)[C@@H](O[C@@H]2O[C@H](C)C[C@H](N(C)CCCCc3ccc(-n4cc(C)ccc4=O)cc3)[C@H]2O)[C@](C)(O)C[C@@H](C)CN(C)[C@H](C)[C@@H](O)[C@]1(C)O` [Compound 15a], the IC50 in the data set with Hep-G2 (setting [7]) stood at 52.2 ± 1 µM; in the data set with VERO (setting [8]) it was 23.9 ± 1.7 µM; in the data set on MRC-5 it was 5.9 ± 0.1 µM; in the data set with A549 (setting [9]) it was 43.2 ± 5.7 µM.
Taken in the same sequence, the figures for `CC[C@H]1OC(=O)[C@H](C)[C@@H](O[C@H]2C[C@@](C)(OC)[C@@H](O)[C@H](C)O2)[C@H](C)[C@@H](O[C@@H]2O[C@H](C)C[C@H](N(C)Cc3cn(CCCCc4ccc(-n5cc(C)ccc5=O)cc4)nn3)[C@H]2O)[C@](C)(O)C[C@@H](C)CN(C)[C@H](C)[C@@H](O)[C@]1(C)O` [Compound 15b] were 27.7 ± 3.3 µM, 53.2 ± 0.1 µM, 36.1 ± 6.1 µM and 35.2 ± 5.4 µM.
Regarding `CC[C@H]1OC(=O)[C@H](C)[C@@H](O[C@H]2C[C@@](C)(OC)[C@@H](O)[C@H](C)O2)[C@H](C)[C@@H](O[C@@H]2O[C@H](C)C[C@H](N(C)Cc3ccc(-c4cn(CCCCc5ccc(-n6cc(C)ccc6=O)cc5)nn4)cc3)[C@H]2O)[C@](C)(O)C[C@@H](C)CN(C)[C@H](C)[C@@H](O)[C@]1(C)O` [Compound 15c], the IC50 in the data set with Hep-G2 (setting [7]) came out at 2.6 ± 0.1 µM; in the data set on VERO (setting [8]), 5.9 ± 0.1 µM; in the data set with MRC-5, 5.7 ± 0.1 µM; in the data set on A549 (setting [9]) it was 5 ± 0.2 µM.
Taken in the same sequence, the figures for `CC[C@H]1OC(=O)[C@H](C)[C@@H](O[C@H]2C[C@@](C)(OC)[C@@H](O)[C@H](C)O2)[C@H](C)[C@@H](O[C@@H]2O[C@H](C)C[C@H](N(C)CC#Cc3ccc(-n4cc(C)ccc4=O)cc3)[C@H]2O)[C@](C)(O)C[C@@H](C)CN(C)[C@H](C)[C@@H](O)[C@]1(C)O` [Compound 20a] were 53.4 ± 3.3 µM, 71.4 ± 6.3 µM, 23.3 ± 3.3 µM and 55.9 ± 6.4 µM.
Taken in the same sequence, the figures for `CC[C@H]1OC(=O)[C@H](C)[C@@H](O[C@H]2C[C@@](C)(OC)[C@@H](O)[C@H](C)O2)[C@H](C)[C@@H](O[C@@H]2O[C@H](C)C[C@H](N(C)CCC#Cc3ccc(-n4cc(C)ccc4=O)cc3)[C@H]2O)[C@](C)(O)C[C@@H](C)CN(C)[C@H](C)[C@@H](O)[C@]1(C)O` [Compound 20b] were 24.8 ± 1.7 µM, 28.5 ± 1.8 µM, 19.1 ± 2.6 µM and 31.2 ± 4.8 µM.
In the same order, the values of `CC[C@H]1OC(=O)[C@H](C)[C@@H](O[C@H]2C[C@@](C)(OC)[C@@H](O)[C@H](C)O2)[C@H](C)[C@@H](O[C@@H]2O[C@H](C)C[C@H](N(C)CCCC#Cc3ccc(-n4cc(C)ccc4=O)cc3)[C@H]2O)[C@](C)(O)C[C@@H](C)CN(C)[C@H](C)[C@@H](O)[C@]1(C)O` [Compound 20c] are 45.2 ± 7.4 µM, 36.4 ± 3.8 µM, 41.7 ± 0.1 µM and 42.7 ± 8.4 µM.
On to `CC[C@H]1OC(=O)[C@H](C)[C@@H](O[C@H]2C[C@@](C)(OC)[C@@H](O)[C@H](C)O2)[C@H](C)[C@@H](O[C@@H]2O[C@H](C)C[C@H](N(C)CCCCC#Cc3ccc(-n4cc(C)ccc4=O)cc3)[C@H]2O)[C@](C)(O)C[C@@H](C)CN(C)[C@H](C)[C@@H](O)[C@]1(C)O` [Compound 20d], for which the IC50 in the data set on Hep-G2 (setting [7]) was 12.7 ± 1.3 µM; with VERO (setting [8]), 16.2 ± 3.1 µM; in the data set on MRC-5, 5.5 ± 0.2 µM; in the data set with A549 (setting [9]), 15.5 ± 1.1 µM.
Taken in the same sequence, the figures for `CC[C@H]1OC(=O)[C@H](C)[C@@H](O[C@H]2C[C@@](C)(OC)[C@@H](O)[C@H](C)O2)[C@H](C)[C@@H](O[C@@H]2O[C@H](C)C[C@H](N(C)CCCCCC#Cc3ccc(-n4cc(C)ccc4=O)cc3)[C@H]2O)[C@](C)(O)C[C@@H](C)CN(C)[C@H](C)[C@@H](O)[C@]1(C)O` [Compound 20e] were 2.8 µM, 4.7 ± 0.3 µM, 2.2 ± 0.1 µM and 6.1 ± 0.3 µM.
